According to patent US12213979B2, “Biomarkers of methotrexate-induced immune tolerance” (Genzyme Corporation, priority 2017, dated 2025):

Assays:
[1] = system: erythroid ankyrin and glycophorin C; experiment: Tissue mass spectrometry imaging (tMSI) of spleen; assay type: in vivo, mice; conditions: 7 days after rhGAA initiation, methotrexate given together with rhGAA or FB
Experimental: Fresh spleen samples for tMSI were collected in 10% gelatin (Alfa Aesar catalog J62699), frozen en bloc, cut into […] sections, and deposited on indium tin oxide ([…]) glass slides. ITO glass slides were coated with matrix-assisted laser desorption/ionization (MALDI) matrix (α-cyano-4-hydroxycinnamic acid) for tMSI. Mass spectrometry imaging was performed with AB Sciex 4800 MALDI-TOF/TOF, Autoflex MALDI-TOF/TOF and 7T SolariX MALDI-FTICR mass spectrometers. The imaging data sets were analyzed with TissueView, flexlmaging, or Multimaging 1.1 (ImaBiotech).

anti-rhGAA IgG antibody [2] = experiment: Serum anti-rhGAA antibody titers by ELISA, dosed control mice; assay type: in vivo; conditions: high outlier not removed (data not shown)
Experimental: (§1) C57BL/6 (Jackson Laboratory) or C57BL/6NTac (Taconic Biosciences, Inc.) female mice between S and 12 weeks of age were housed and maintained in accordance with the Guide for the Care and Use of Laboratory Animals, under the American Association for Accreditation of Laboratory Animal Care. The Institutional Animal Care and Use Committee approved all animal procedures. […] Subsequent weekly doses of rhGAA (up to 16 weeks) were given 15 minutes after prophylactic intraperitoneal administration of 30 mg/kg diphenhydramine (West-ward Pharmaceutical). The vehicle control or formulation buffer (FB) for rhGAA. was administered similarly to reconstituted rhGAA. Blood was collected by retro-orbital Heeds from anesthetized mice or by terminal bleeds into EDTA anticoagulant Capiject micro collection tubes (Terumo) on wet ice. Spleens were prepared into single-cell suspension between glass slides with or without RBC lysis. Bone marrow was collected from a single femur on wet ice.
Quantitation of anti-rhGAA antibody titers from mouse serum was measured by ELBA as previously described (holy, Martin et. al. 2014). […] The reaction was stopped by addition of 1 N HCl and absorbance was immediately measured at 450/650 nm on a SpectraMax M2 (Molecular Devices). End-point titers were derived from the reciprocal of the sample dilution resulting in an absorbance value of 0.2.

[3] = system: genes associated with erythropoiesis; experiment: RNA-sequencing of spleen and PBMC's of treated mice; assay type: in vivo; conditions: for transcriptional signatures of erythropoiesis: day 7 after rhGAA initiation, rhGAA in conjunction with low-dose methotrexate
Experimental: Animals were sacrificed on day 7 after rhGAA initiation. Blood was collected by terminal retro-orbital bleeds as described above. Whole blood diluted 1 part in 2 with PBS was layered over Ficoll for the separation of peripheral blood mononuclear cells (PBMC's). Spleens were prepared into single-cell suspension between glass slides. Samples were treated for RBC lysis (BD Pharm Lyse). […] The RNA integrity number (RIN) was evaluated. on an Agilent 2100 bioanalyzer with the RNA 6000 nano kit (Agilent) or RNA 6000 pica kit (Agilent). RNA amplification was performed with the SMARTER™ PCR cDNA Synthesis Kit (Clonetech). Detection of sequencing fragments was performed on the Illumina HiSeq2000 with Illumina sequencing kits. RNA-seq data sets were filtered to remove adaptors and low-quality, reads and assessed for differential expression with a fold change of 2 and p value≤0.05. Differentially expressed genes were annotated and examined through NextBio biological data mining software (Illumina).

[4] = system: total RBCs (Ter-119+) and immature, nucleated RBCs (Ter-119+CD71+); experiment: Flow cytometry of erythroid cells in spleen; assay type: in vivo, mice
Experimental: as §1
(§2) Anti-mouse antibodies used for flow cytometry include BioLegend antibodies PE-Ter-119 (catalog 116208), PerCP-Cy5.5-CD71 (catalog 113816), PE-Cy7-IgM (catalog 406516), Pacific Blue (PB)-CD86 (catalog 105022) and allophycocyanin-CD45 (catalog 103116). Antibodies from BD Biosciences include FITC-CD44 (catalog 553133), allophycocyanin-CD3 (catalog 550035), allophycocyanin-CD19 or allophycocyanin-Cy7-CD19 (catalog 557655 and 550992), FITC-CD1d (catalog 553843), FITC-CD23 (catalog 553138) and allophycocyanin-Cy7-CD3, (catalog 557596). Live/dead discrimination was determined by staining with BioLegend Zombie Aqua Fixable Visability Kit. Samples were run on a BD FACS Canto II (BD Biosciences) and acquired with BD FACSDiva software. Cytometry data was analyzed on Floyd( )software version 10 (FlowJo, LLC). Absolute numbers of cell population were calculated from CountBright Absolute Counting Beads (ThermoFisher Scientific). Cell types assessed include total RBCs (Ter-119^+), immature, nucleated RBCs (Ter-119^+, CD71^+), mature RBCs (Ter-119^+, […]), proerythrohlasts (Ter-119^intermediate, CD44^high), basophilic erythroblasts (Ter-119^+, CD44^highFSC^high), polychromatic erythroblasts (Ter-119^+, CD44^intermediateFSC^intermediate), orthochromatic erythroblasts and reticulocytes (Ter-119^+, CD44^intermediateFSC^low), mature red blood cells (Ter-119^+, CD44^lowFSC^low), total activated B cells (CD19^+CD86^+), activated follicular B cells (CD19^+, IgM^low/high CD23^+, CD86^+), activated marginal zone B cells (CD19^+, IgM^high CD23^−, CD86^+), and B10 regulatory B cells (CD19^+, CD1d^highCD5^+) (Allman et. al., 2004: Chen et. al., 2009; Koulnis et. al., 2011; Joly et. al., 2014).

[5] = system: total RBCs (Ter-119+) and immature, nucleated RBCs (Ter-119+CD71+); experiment: Flow cytometry of erythroid cells in bone marrow; assay type: in vivo, mice
Experimental: as §1, §2

[6] = Spleen weight and spleen cellularity; assay type: in vivo, mice; conditions: day 7; rhGAA concurrent with a single cycle of low-dose methotrexate vs rhGAA alone
Experimental: as §1, with “Spleens were prepared into single-cell suspension between glass slides with or without RBC lysis. Bone marrow was collected from a single femur on wet ice.” left out
Anti-mouse antibodies used for flow cytometry include BioLegend antibodies PE-Ter-119 (catalog 116208), PerCP-Cy5.5-CD71 (catalog 113816), PE-Cy7-IgM (catalog 406516), Pacific Blue (PB)-CD86 (catalog 105022) and allophycocyanin-CD45 (catalog 103116). […] Live/dead discrimination was determined by staining with BioLegend Zombie Aqua Fixable Visability Kit. […] Cytometry data was analyzed on Floyd( )software version 10 (FlowJo, LLC). Absolute numbers of cell population were calculated from CountBright Absolute Counting Beads (ThermoFisher Scientific). […]

[7] = system: proteins of erythropoiesis related pathways (transferrin receptor 1, transferrin); experiment: LC/MS protein mass spectrometry of spleen of treated mice; assay type: in vivo; conditions: day 7, rhGAA with vs without transient low-dose methotrexate
Experimental: as §1, with “Spleens were prepared into single-cell suspension between glass slides with or without RBC lysis. Bone marrow was collected from a single femur on wet ice.” left out
Blood was collected by terminal retro-orbital bleeds as described above followed by separation of plasma and PBC by centrifugation. […] Data was analyzed by Progenesis QI for Proteomics (Nonlinear Dynamics) for peak detection. […] Protein quantitation was performed through Progenesis QI for Proteomics. Fold change and p-values were calculated from the average normalized protein abundance data for each experimental group. […] Data were analyzed for enrichment scores in GO processes and other biological categories in MetaCore (Thomson Reuters).

[8] = system: total RBCs (Ter-119+) and immature, nucleated RBCs (Ter-119+CD71+); experiment: Flow cytometry of erythroid cells in blood; assay type: in vivo, mice
Experimental: as §1, §2

anti-rhGAA IgG antibody [9] = conditions: historical data; rhGAA with transient low-dose methotrexate ITI regimen vs rhGAA alone; cited from earlier work
[10] = Hematology: CBC and reticulocyte count on Sysmex XT2000iV; assay type: in vivo, mice; conditions: blood; 7 days after rhGAA initiation; groups with transient low-dose methotrexate (rhGAA or FB)
Experimental: as §1
Samples were collected by retro-orbital bleed into EDTA anticoagulant Capiject micro collection tubes as described above and stored at 2-8° C. for no longer than 72 hours. CBC, WBC differential analysis and reticulocyte count were performed on Sysmex XT2000iV (Sysmex). Histology, immunohistochemistry (IHC)

[11] = day 2, CD44/FSC gating, with rhGAA vs rhGAA alone
[12] = day 2, with rhGAA vs rhGAA alone
[13] = day 7, CD44/FSC gating, with rhGAA vs rhGAA alone
[14] = day 7, with rhGAA vs rhGAA alone
[15] = day 9, with rhGAA vs rhGAA alone
[16] = day 4, CD44/FSC gating, with rhGAA vs rhGAA alone
[17] = day 4, with rhGAA vs rhGAA alone
[18] = day 5, with rhGAA vs rhGAA alone
[19] = day 7 and 9, with rhGAA vs rhGAA alone
[20] = day 9, CD44/FSC gating, with rhGAA vs rhGAA alone

rhGAA: recombinant human acid-α-glucosidase, enzyme replacement therapy used to treat Pompe disease
erythroid ankyrin signal in 10 μM spleen sections [1]: evenly distributed across the spleen
glycophorin C signal in 10 μM spleen sections [1]: evenly distributed across the spleen

CN(Cc1cnc2nc(N)nc(N)c2n1)c1ccc(C(=O)N[C@@H](CCC(=O)O)C(=O)O)cc1 [methotrexate]
rhGAA titers and AUC, difference between dosed control groups (anti-rhGAA IgG antibody [2]): no differences
transcriptional signatures of erythropoiesis ([3]; PBMC's): upregulation of transcriptional signatures of erythropoiesis
TfR1 in the transcriptional data set ([3]; day 7, rhGAA and low-dose methotrexate vs rhGAA alone): upregulation
transcriptional signatures of erythropoiesis ([3]; spleen): upregulation of transcriptional signatures of erythropoiesis
day of peak enrichment of immature, nucleated RBCs [4]: 7 days
time to significant reduction in immature, nucleated RBCs and mature RBCs ([4]; after the first administration of low-dose methotrexate): ≤ 24 h
all stages of early erythroid cells (proerythroblasts, basophilic, polychromatic, orthochromatic erythroblasts and reticulocytes) [4, 11]: significantly diminished
mature RBCs [4, 11]: significantly reduced
immature, nucleated RBCs (Ter-119+CD71+) [4, 12]: nearly complete reduction
total erythroid cells (Ter-119+) [4, 12]: significant reduction
erythroid cells, difference between groups ([4]; day 6, with rhGAA vs rhGAA alone): No differences
mature RBCs [4, 13]: no differences
proerythroblasts, basophilic, polychromatic and orthochromatic erythroblasts and reticulocytes [4, 13]: significant enrichment
immature, nucleated RBCs (Ter-119+CD71+) [4, 14]: significant expansion
total erythroid cells (Ter-119+) [4, 14]: large and significant enrichment
immature, nucleated RBCs (Ter-119+CD71+) [4, 15]: smaller but significant enrichment
total erythroid cells (Ter-119+) [4, 15]: smaller but significant enrichment
erythroid response ([4]; transient low-dose methotrexate alone (with FB)): mimicked that of the group treated with transient low-dose methotrexate together with rhGAA
all stages of early erythroid cells [5, 16]: significant depletion
mature RBCs [5, 16]: no statistically significant differences
immature, nucleated RBCs [5, 17]: significantly reduced
total RBCs [5, 17]: no Differences
all erythroid cell stages, including early and mature RBCs ([5]; day 5, CD44/FSC gating, with rhGAA vs rhGAA alone): Depletion
immature, nucleated RBCs [5, 18]: significantly reduced
total RBCs [5, 18]: significantly reduced
mature RBCs [5, 13]: significantly reduced
proerythroblasts and polychromatic erythroblasts [5, 13]: small but significant enrichment
immature, nucleated RBCs [5, 19]: no differences
total RBCs [5, 19]: no differences
mature RBCs [5, 20]: no differences
proerythroblasts and polychromatic erythroblasts [5, 20]: small but significant enrichment
spleen cellularity by flow cytometry [6]: significantly greater
spleen weight [6]: significantly enlarged
erythroid ankyrin signal in 10 μM spleen sections [1]: diminished
glycophorin C signal in 10 μM spleen sections [1]: diminished
transferrin protein level [7]: upregulation
transferrin receptor 1 protein level [7]: upregulation
basophilic erythroblasts, orthochromatic erythroblasts, reticulocytes and mature red blood cells [8, 11]: small but significant reduction
immature, nucleated RBCs [8, 12]: significant depletion
total RBCs [8, 12]: significant depletion
immature, nucleated RBCs [8, 17]: nearly absent
immature, nucleated RBCs [8, 13]: no changes
mature RBCs [8, 13]: significant reduction
total RBCs [8, 14]: significantly reduced
immature, nucleated RBCs ([8]; day 7, with rhGAA vs rhGAA alone, Ter-119/CD71 gating): significantly enriched
immature, nucleated RBCs [8, 15]: significantly enriched
total RBCs [8, 15]: significantly enriched
immature, nucleated RBCs ([8]; day 14, with rhGAA vs rhGAA alone): small but significant enrichment
enrichment of immature, nucleated RBCs ([8]; day 28, with rhGAA vs rhGAA alone): absent
total RBCs ([8]; methotrexate alone vs vehicle control): no observed differences
rhGAA titers and AUC (anti-rhGAA IgG antibody [9]): significantly reduced
Hemoglobin content [10]: significantly reduced
Total RBC numbers (CBC) [10]: significantly reduced
frequency and numbers of mature reticulocytes [10]: no observed differences
frequency of the immature reticulocyte fraction (IRF) [10]: significantly enriched
hematocrit [10]: significantly reduced
